Measurements from PMC4965013, “Open Source Drug Discovery with the Malaria Box Compound Collection for Neglected Diseases and Beyond” (PLoS Pathogens, 2016).

Tests used:
[1] = test system: P. falciparum 3D7 trophozoites; assay: Metabolomic fingerprint profiling LC-MS; assay type: cell-based, Plasmodium falciparum; parameters: UDP-D-glucose / ADP-D-glucose: unit not given here; settings: for Acetyllysine / N-acetyl-L-ornithine / N-carbamoyl-L-aspartate / NADPH / dAMP / dCMP / dTDP / dTMP / dTTP / dihydroorotate / orotate / DLH / DLS/SDL/SID / PD / PEE / PVNF / 3-phosphoglycerate / ADP-D-glucose / ATP / CDP / D-sedoheptulose-1/7-phosphate / FAD / GMP / NAD+ / NADP+ / Octoluse Bisphosphate / Pyroglutamic acid / UDP-D-glucose / UDP-D-glucuronate / UDP-N-acetyl-glucosamine / UDP / UMP / UTP / a-ketoglutarate / citrate/isocitrate / cytidine / dATP / dGMP/AMP / fumarate / glucose-1/6-phosphate / glycerate / guanine / guanosine / hypoxanthine / indole / inosine / nicotinate / ornithine / phosphoenolpyruvate / pyruvate / ribose-phosphate / sarcosine/alanine / sn-glycerol-3-phosphate / succinate/methylmalonic acid / uridine / xanthosine: S2 Table Metabolomics; for Acetyllysine: metabolite Acetyllysine; for N-acetyl-L-ornithine: metabolite N-acetyl-L-ornithine; for N-carbamoyl-L-aspartate: metabolite N-carbamoyl-L-aspartate; for NADPH: metabolite NADPH; for dAMP: metabolite dAMP; for dCMP: metabolite dCMP; for dTDP: metabolite dTDP; for dTMP: metabolite dTMP; for dTTP: metabolite dTTP; for dihydroorotate: metabolite dihydroorotate; for orotate: metabolite orotate; for DLH: peptide DLH; for DLS/SDL/SID: peptide DLS/SDL/SID; for PD: peptide PD; for PEE: peptide PEE; for PVNF: peptide PVNF; for 3-phosphoglycerate: metabolite 3-phosphoglycerate; for ADP-D-glucose: metabolite ADP-D-glucose; for ATP: metabolite ATP; for CDP: metabolite CDP; for CDP / D-sedoheptulose-1/7-phosphate / GMP / Octoluse Bisphosphate / UDP / UMP / UTP / citrate/isocitrate / dGMP/AMP / fumarate / glucose-1/6-phosphate / glycerate / guanine / guanosine / inosine / pyruvate / sarcosine/alanine / succinate/methylmalonic acid / uridine / xanthosine: change in metabolite level after compound treatment; for D-sedoheptulose-1/7-phosphate: metabolite D-sedoheptulose-1/7-phosphate; for FAD: metabolite FAD; for GMP: metabolite GMP; for NAD+: metabolite NAD+; for NADP+: metabolite NADP+; for Octoluse Bisphosphate: metabolite Octoluse Bisphosphate; for Pyroglutamic acid: metabolite Pyroglutamic acid; for UDP-D-glucose: metabolite UDP-D-glucose; for UDP-D-glucuronate: metabolite UDP-D-glucuronate; for UDP-N-acetyl-glucosamine: metabolite UDP-N-acetyl-glucosamine; for UDP: metabolite UDP; for UMP: metabolite UMP; for UTP: metabolite UTP; for a-ketoglutarate: metabolite a-ketoglutarate; for citrate/isocitrate: metabolite citrate/isocitrate; for cytidine: metabolite cytidine; for dATP: metabolite dATP; for dGMP/AMP: metabolite dGMP/AMP; for fumarate: metabolite fumarate; for glucose-1/6-phosphate: metabolite glucose-1/6-phosphate; for glycerate: metabolite glycerate; for guanine: metabolite guanine; for guanosine: metabolite guanosine; for hypoxanthine: metabolite hypoxanthine; for indole: metabolite indole; for inosine: metabolite inosine; for 2_3-Diphosphoglyceric acid / 4-phosphopantothenate / 6-phospho-D-gluconate / FMN / IMP / Pyrophosphate / Sedoheptoluse bisphosphate / cyclic-AMP / glutathione disulfide / lactate / myo-inositol: metabolite level change after treatment; for nicotinate: metabolite nicotinate; for ornithine: metabolite ornithine; for phosphoenolpyruvate: metabolite phosphoenolpyruvate; for pyruvate: metabolite pyruvate; for ribose-phosphate: metabolite ribose-phosphate; for sarcosine/alanine: metabolite sarcosine/alanine; for sn-glycerol-3-phosphate: metabolite sn-glycerol-3-phosphate; for succinate/methylmalonic acid: metabolite succinate/methylmalonic acid; for uridine: metabolite uridine; for xanthosine: metabolite xanthosine
[2] = test system: P. falciparum; assay: EC50 listed in S2 Table Metabolomics (used to set the concentration tested); assay type: cell-based; settings: Plasmodium falciparum; EC50 used for Factor_XEC50 in metabolomics; read-out: EC50_nM

Q: Which Acetyllysine [1] does the source give for `CCCCCCOC(=O)C1=C(C)NC(=O)NC1c1ccccc1F` (stereo not shown) [MMV007686] here?
A: -0.6021

Q: What about the N-acetyl-L-ornithine [1] of the same compound?
A: -0.5247

Q: What about the N-carbamoyl-L-aspartate [1] of the same compound?
A: -0.1545

Q: And the NADPH [1]?
A: -0.6448

Q: What about the dAMP [1] of the same compound?
A: -0.475

Q: What about the dCMP [1] of the same compound?
A: 0.2166

Q: And the dTDP [1]?
A: -0.8182

Q: And the dTMP [1]?
A: -0.71

Q: And the dTTP [1]?
A: -0.2978

Q: And the dihydroorotate [1]?
A: 0.04156

Q: What about the orotate [1] of the same compound?
A: 0.1913

Q: What about the DLH [1] of the same compound?
A: 0.3631

Q: What about the DLS/SDL/SID [1] of the same compound?
A: 0.06173

Q: What about the PD [1] of the same compound?
A: -0.2456

Q: And the PEE [1]?
A: -0.1279

Q: And the PVNF [1]?
A: 0.4591

Q: And the 3-phosphoglycerate [1]?
A: 0.4561

Q: What about the ADP-D-glucose [1] of the same compound?
A: 0.08489

Q: What about the ATP [1] of the same compound?
A: -0.09097

Q: What about the CDP [1] of the same compound?
A: -1.124

Q: What about the D-sedoheptulose-1/7-phosphate [1] of the same compound?
A: -0.6707

Q: And the FAD [1]?
A: -0.2456

Q: And the GMP [1]?
A: 0.9608

Q: What about the “NAD+” value [1] of the same compound?
A: -0.04958

Q: What about the “NADP+” value [1] of the same compound?
A: -0.001559

Q: And the “Octoluse Bisphosphate” value [1]?
A: -0.1324

Q: And the Pyroglutamic acid [1]?
A: 0.9271

Q: What about the UDP-D-glucose [1] of the same compound?
A: -0.1029

Q: What about the UDP-D-glucuronate [1] of the same compound?
A: -0.1902

Q: And the UDP-N-acetyl-glucosamine [1]?
A: -0.1743

Q: What about the UDP [1] of the same compound?
A: -1.121

Q: What about the UMP [1] of the same compound?
A: 0.7368

Q: What about the UTP [1] of the same compound?
A: -0.5193

Q: And the a-ketoglutarate [1]?
A: 0.8749

Q: What about the citrate/isocitrate [1] of the same compound?
A: 0.6672

Q: And the cytidine [1]?
A: 0.271

Q: And the dATP [1]?
A: -0.2157

Q: What about the dGMP/AMP [1] of the same compound?
A: -0.5696

Q: What about the fumarate [1] of the same compound?
A: 0.5304

Q: What about the glucose-1/6-phosphate [1] of the same compound?
A: -0.0799

Q: What about the glycerate [1] of the same compound?
A: 0.5979

Q: And the guanine [1]?
A: -0.1143

Q: And the guanosine [1]?
A: -0.2083

Q: And the hypoxanthine [1]?
A: 0.8142

Q: And the indole [1]?
A: 0.4434

Q: What about the inosine [1] of the same compound?
A: 0.6048

Q: And the 2_3-Diphosphoglyceric acid [1]?
A: -0.3849

Q: And the 4-phosphopantothenate [1]?
A: -0.1203

Q: What about the 6-phospho-D-gluconate [1] of the same compound?
A: -0.2727

Q: What about the FMN [1] of the same compound?
A: -0.1451

Q: And the IMP [1]?
A: -0.1074

Q: What about the Pyrophosphate [1] of the same compound?
A: -0.313

Q: And the Sedoheptoluse bisphosphate [1]?
A: -0.1202

Q: And the cyclic-AMP [1]?
A: -0.174

Q: And the glutathione disulfide [1]?
A: -0.2538

Q: And the lactate [1]?
A: 0.3995

Q: What about the myo-inositol [1] of the same compound?
A: 0.04912

Q: What about the nicotinate [1] of the same compound?
A: 0.5888

Q: What about the ornithine [1] of the same compound?
A: 0.3712

Q: And the phosphoenolpyruvate [1]?
A: 0.6171

Q: What about the pyruvate [1] of the same compound?
A: 0.7724

Q: What about the ribose-phosphate [1] of the same compound?
A: 0.6092

Q: What about the sarcosine/alanine [1] of the same compound?
A: 0.1752

Q: And the sn-glycerol-3-phosphate [1]?
A: 0.5669

Q: And the succinate/methylmalonic acid [1]?
A: 0.1316

Q: And the uridine [1]?
A: 0.4569

Q: What about the xanthosine [1] of the same compound?
A: 0.7187

Q: And the EC50 [2]?
A: 106 nM

Q: How did the Acetyllysine [1] turn out when `COc1ccc(-n2ccnc2SCC(=O)Nc2cc(C)ccc2C)c(OC)c1` [MMV019258] was run?
A: -0.6249

Q: What about the N-acetyl-L-ornithine [1] of the same compound?
A: -0.6242

Q: What about the N-carbamoyl-L-aspartate [1] of the same compound?
A: 3.802

Q: What about the NADPH [1] of the same compound?
A: -0.4851

Q: What about the dAMP [1] of the same compound?
A: -1.834

Q: What about the dCMP [1] of the same compound?
A: 0.07117

Q: And the dTDP [1]?
A: -1.878

Q: What about the dTMP [1] of the same compound?
A: -1.688

Q: And the dTTP [1]?
A: -1.338

Q: What about the dihydroorotate [1] of the same compound?
A: 5.204

Q: And the orotate [1]?
A: -0.1277

Q: And the DLH [1]?
A: -0.04693

Q: What about the DLS/SDL/SID [1] of the same compound?
A: -0.2869

Q: And the PD [1]?
A: -0.04264

Q: And the PEE [1]?
A: -0.4454

Q: And the PVNF [1]?
A: -2.048

Q: What about the 3-phosphoglycerate [1] of the same compound?
A: 0.6242

Q: And the ADP-D-glucose [1]?
A: 0.3573

Q: What about the ATP [1] of the same compound?
A: 0.2564

Q: And the CDP [1]?
A: -1.841

Q: What about the D-sedoheptulose-1/7-phosphate [1] of the same compound?
A: -1.029

Q: What about the FAD [1] of the same compound?
A: 0.0674

Q: What about the GMP [1] of the same compound?
A: 1.676

Q: What about the “NAD+” value [1] of the same compound?
A: 0.1657

Q: And the “NADP+” value [1]?
A: 0.1196

Q: And the “Octoluse Bisphosphate” value [1]?
A: -0.03706

Q: And the Pyroglutamic acid [1]?
A: 0.9996

Q: What about the UDP-D-glucose [1] of the same compound?
A: 0.07144

Q: And the UDP-D-glucuronate [1]?
A: -0.1808

Q: What about the UDP-N-acetyl-glucosamine [1] of the same compound?
A: -0.2701

Q: And the UDP [1]?
A: -2.466

Q: What about the UMP [1] of the same compound?
A: -0.6353

Q: What about the UTP [1] of the same compound?
A: -1.944

Q: What about the a-ketoglutarate [1] of the same compound?
A: 0.866

Q: And the citrate/isocitrate [1]?
A: 0.4908

Q: And the cytidine [1]?
A: 0.5413

Q: What about the dATP [1] of the same compound?
A: 0.5274

Q: What about the dGMP/AMP [1] of the same compound?
A: -0.3361

Q: What about the fumarate [1] of the same compound?
A: 0.3957

Q: And the glucose-1/6-phosphate [1]?
A: 0.221

Q: What about the glycerate [1] of the same compound?
A: 0.7468

Q: What about the guanine [1] of the same compound?
A: 0.4637

Q: And the guanosine [1]?
A: 0.7901

Q: And the hypoxanthine [1]?
A: 1.05

Q: And the indole [1]?
A: 0.5756

Q: And the inosine [1]?
A: 0.8159

Q: And the 2_3-Diphosphoglyceric acid [1]?
A: -0.06901

Q: And the 4-phosphopantothenate [1]?
A: -0.2542

Q: And the 6-phospho-D-gluconate [1]?
A: 0.0357

Q: And the FMN [1]?
A: -0.006391

Q: And the IMP [1]?
A: 0.3439

Q: What about the Pyrophosphate [1] of the same compound?
A: -0.1345

Q: What about the Sedoheptoluse bisphosphate [1] of the same compound?
A: -0.0261

Q: And the cyclic-AMP [1]?
A: -0.1381

Q: And the glutathione disulfide [1]?
A: -0.07054

Q: And the lactate [1]?
A: 0.415

Q: What about the myo-inositol [1] of the same compound?
A: -0.225

Q: And the nicotinate [1]?
A: 0.9606

Q: And the ornithine [1]?
A: 0.46

Q: What about the phosphoenolpyruvate [1] of the same compound?
A: 0.911

Q: And the pyruvate [1]?
A: 0.8605

Q: What about the ribose-phosphate [1] of the same compound?
A: 0.2278

Q: And the sarcosine/alanine [1]?
A: 0.199

Q: And the sn-glycerol-3-phosphate [1]?
A: 0.01743

Q: What about the succinate/methylmalonic acid [1] of the same compound?
A: 0.09628

Q: And the uridine [1]?
A: 0.32

Q: What about the xanthosine [1] of the same compound?
A: 1.135

Q: And the EC50 [2]?
A: 170 nM
